For nine molecules, TGI and GI50 results are on record in PubChem BioAssay (NCI).

Values joined by “and” are separate entries in the source; they are usually repeats but may differ in a detail not shown here. Identical values can stand only once.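 Protocol summary: plate cells (96-well), add compound at 5 concentrations, incubate 48 h, interpolate endpoints linearly. GI50 = concentration required for 50% inhibition of growth. TGI denotes the concentration required for complete inhibition of growth.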 Starred links: 1 amine or outer side, 2 acyl side, 3 side chain; linkers in the order of their positions; H or OH if unused. Positions of bridges follow the written chain, without caps; N, C: chain ends. Non-standard residues stand in square brackets, D forms with d. Residues, ends and D or L forms follow the SMILES beside them. Chains are numbered I, II in the order given. Actinocin(9to1) = Cc1c2oc3c(C)ccc(C(=O)[*:1])c3nc-2c(C(=O)[*:2])c(N)c1=O; NMeY = CN[CH](Cc1ccc(O)cc1)C(=O)O; Sar = CNCC(=O)O

Among the test systems are RXF 393 renal; BT-549 breast; MOLT-4 leukemia; UACC-62 melanoma; IGROV1 ovarian; TK-10 renal; NCI-H460 lung; SK-MEL-28 melanoma; A498 renal; SK-MEL-2 melanoma; A549 NSCLC; 786-0 renal; MALME-3M melanoma.
Common to all, as to test: inhibition of tumour cell growth, NCI panel, 48 h

Consider `Brc1ccc2[nH]cc(-c3csc(-c4c[nH]c5ccccc45)n3)c2c1`, for which the TGI in the experiment with RXF 393 renal was 11.2 µM; with BT-549 breast it was 22.7 µM; in the experiment with MOLT-4 leukemia it was 6.18 µM; in the experiment with UACC-62 melanoma, greater than 22.5 µM; with IGROV1 ovarian, 11.6 µM; in the experiment on TK-10 renal, 12 µM. Also, the TGI with NCI-H460 lung was 12.6 µM; with SK-MEL-28 melanoma, 15.3 µM; in the experiment with A498 renal it was 13.8 µM; in the experiment on SK-MEL-2 melanoma it was 9.36 µM; in the experiment on A549 NSCLC, 20.2 µM; with 786-0 renal it was 5.27 µM. Moreover, the TGI in the experiment with MALME-3M melanoma worked out at 8.21 µM.

As to `C=CCCON(C(=O)OC(C)(C)C)C(C)(C)C`, the TGI with RXF 393 renal, in the experiment with BT-549 breast, in the experiment on MOLT-4 leukemia, in the experiment on UACC-62 melanoma, in the experiment on IGROV1 ovarian and in the experiment on TK-10 renal was greater than 100 µM in each case. Besides, the TGI with NCI-H460 lung, with SK-MEL-28 melanoma, with A498 renal, in the experiment on SK-MEL-2 melanoma, in the experiment with A549 NSCLC and in the experiment on 786-0 renal was greater than 100 µM throughout. In the experiment on MALME-3M melanoma, this molecule yielded a TGI greater than 100 µM.

With `CC1(C)OC(C(=O)Nc2cc3c4ccccc4ccc3c3ccccc23)C(C(=O)N2CCCCC2)O1` (stereo not drawn), the TGI is greater than 27.7 µM in the experiment with RXF 393 renal; greater than 100 µM in the experiment on BT-549 breast; greater than 23.9 µM in the experiment with MOLT-4 leukemia; greater than 100 µM in the experiment on UACC-62 melanoma; greater than 100 µM with IGROV1 ovarian; greater than 100 µM in the experiment with TK-10 renal. For the same molecule, the TGI was 27.7 µM in the experiment on NCI-H460 lung; greater than 100 µM in the experiment on SK-MEL-28 melanoma; greater than 100 µM with A498 renal; greater than 100 µM in the experiment on SK-MEL-2 melanoma; greater than 100 µM with A549 NSCLC; greater than 100 µM with 786-0 renal. For the same molecule, the TGI with MALME-3M melanoma is greater than 100 µM.

In the case of `C=C(Cl)C(=CCl)CCC(Br)C(C)(C)Cl` (mixture of isomers), the TGI in the experiment with RXF 393 renal, in the experiment on BT-549 breast, with MOLT-4 leukemia, with UACC-62 melanoma, in the experiment on IGROV1 ovarian and in the experiment on TK-10 renal was greater than 10 µM throughout. Also, the TGI in the experiment on NCI-H460 lung, with SK-MEL-28 melanoma, with A498 renal, in the experiment on SK-MEL-2 melanoma, in the experiment with A549 NSCLC and in the experiment with 786-0 renal was greater than 10 µM in each case. Also, the TGI in the experiment with MALME-3M melanoma was greater than 10 µM.

As to `COC(=O)C1=C(C(=O)OC)N(c2ccc(OC)cc2[N+](=O)[O-])C(c2ccc(C)cc2)=CC1c1ccc(OC)cc1OC` (stereo not drawn), the TGI was 50 µM with RXF 393 renal; greater than 100 µM with BT-549 breast; 55.2 µM in the experiment with MOLT-4 leukemia; greater than 100 µM in the experiment on UACC-62 melanoma; 56.8 µM in the experiment on IGROV1 ovarian; greater than 100 µM with TK-10 renal. Besides, the TGI in the experiment on NCI-H460 lung is 98.7 µM; with SK-MEL-28 melanoma, greater than 100 µM; in the experiment on A498 renal, 46.3 µM; in the experiment on SK-MEL-2 melanoma it was greater than 80.4 µM; with A549 NSCLC it was 65.3 µM; with 786-0 renal, greater than 94 µM. Further, the TGI in the experiment with MALME-3M melanoma is greater than 77.4 µM.

As for `CN=C(n1ccnc1)n1ccnc1`, the TGI in the experiment with RXF 393 renal, in the experiment with BT-549 breast, with MOLT-4 leukemia, with UACC-62 melanoma, in the experiment on IGROV1 ovarian and in the experiment on TK-10 renal was greater than 100 µM throughout. Further, the TGI in the experiment with NCI-H460 lung, in the experiment with SK-MEL-28 melanoma, in the experiment on A498 renal, in the experiment with SK-MEL-2 melanoma, in the experiment on A549 NSCLC and with 786-0 renal was greater than 100 µM throughout. For the same molecule, the TGI with MALME-3M melanoma was greater than 100 µM.

In the case of `CC(=O)Nc1sc(Br)cc1S(=O)(=O)c1ccc(Cl)cc1`, the TGI in the experiment with RXF 393 renal is 48.4 µM; in the experiment on BT-549 breast, 74.8 µM; in the experiment with MOLT-4 leukemia it was greater than 100 µM; in the experiment with UACC-62 melanoma, greater than 100 µM; in the experiment on IGROV1 ovarian, greater than 100 µM; in the experiment on TK-10 renal it was greater than 100 µM. Further, the TGI in the experiment with NCI-H460 lung is greater than 100 µM; in the experiment on SK-MEL-28 melanoma it was greater than 100 µM; with A498 renal it was greater than 100 µM; in the experiment on SK-MEL-2 melanoma, greater than 100 µM; with A549 NSCLC, 90.5 µM; in the experiment on 786-0 renal, 92.3 µM. Moreover, the TGI with MALME-3M melanoma is greater than 100 µM.

Turning to `CN1C(=O)c2ccccc2OC12C=Cc1c(ccc3ccccc13)O2` (stereo not drawn), the TGI in the experiment with RXF 393 renal is 31.1 µM; in the experiment with BT-549 breast, greater than 56.6 µM; in the experiment on MOLT-4 leukemia, 17.2 µM; in the experiment with UACC-62 melanoma, greater than 47.1 µM; in the experiment with IGROV1 ovarian, 30.8 µM; with TK-10 renal, greater than 61 µM. Also, the TGI in the experiment with NCI-H460 lung is 42.5 µM; in the experiment on SK-MEL-28 melanoma, greater than 67.6 µM; in the experiment with A498 renal it was 44.9 µM; with SK-MEL-2 melanoma it was 22 µM; in the experiment on A549 NSCLC, 40.1 µM; in the experiment with 786-0 renal it was 25.7 µM. This molecule also gave a TGI in the experiment on MALME-3M melanoma of 15.6 µM.

For the molecule `Cc1c2oc3c(C)ccc(C(=O)NC4C(=O)NC(C(C)C)C(=O)N5CCCC5C(=O)N(C)CC(=O)N(C)C(Cc5ccc(O)cc5)C(=O)OC4C)c3nc-2c(C(=O)NC2C(=O)NC(C(C)C)C(=O)N3CCCC3C(=O)N(C)CC(=O)N(C)C(Cc3ccc(O)cc3)C(=O)OC2C)c(N)c1=O` (stereo not drawn) (I: TVP[Sar][NMeY] / II: TVP[Sar][NMeY]; ester I:1-I:C, II:1-II:C; linker I:N-II:N via Actinocin(9to1); configuration not given here), the GI50 in the experiment with RXF 393 renal was 0.0635 µM and 0.0229 µM; in the experiment with MOLT-4 leukemia it was 0.00426 µM and 0.00176 µM; with UACC-62 melanoma, 0.0235 µM and 0.0057 µM; in the experiment with TK-10 renal, 0.117 µM; with NCI-H460 lung, 0.0056 µM and 0.000964 µM; in the experiment with SK-MEL-28 melanoma, 0.0248 µM and 0.00701 µM. Further, in the experiment with A549 NSCLC, the GI50 was 0.0499 µM and 0.0119 µM. In addition, the TGI is 0.307 µM and 0.0871 µM with RXF 393 renal; 0.213 µM and 0.0733 µM in the experiment on BT-549 breast; 0.157 µM and 0.0213 µM in the experiment on UACC-62 melanoma; greater than 1 µM in the experiment with IGROV1 ovarian; greater than 1 µM in the experiment on TK-10 renal; greater than 1 µM in the experiment on NCI-H460 lung. The TGI with SK-MEL-28 melanoma is 0.205 µM and 0.0748 µM; in the experiment with A498 renal it was 0.664 µM and 0.11 µM; in the experiment on SK-MEL-2 melanoma it was 0.111 µM and 0.0245 µM; in the experiment on A549 NSCLC it was greater than 1 µM; in the experiment on 786-0 renal, greater than 1 µM; in the experiment with MALME-3M melanoma, 0.273 µM and 0.156 µM.
